Data on four molecules can be found in patent US6121320A, “Combination anti-leukemic therapy by utilizing suramin and biologic response modifiers” (The University of Kentucky Research Foundation, priority 1998, dated 2000).

Where two headings read alike, the source gives them in different places.

Data set [1] concerns HL-60. The data set can be described thus: HL-60 leukemia cell proliferation (MTT), single agents and combinations, CI-isobologram analysis. It is filed as cell-based, human. The method, then: (§1) Assays of proliferation consist of cell proliferation (3H-thymidine) assay as previously described or the MTT assay after 3-5 days of exposure to the agents. Cell proliferation is assayed using a modification of the original MTT calorimetric assay described by Mosmann (53). To better delineate the issues of proliferation (and inhibition thereof) versus differentiation, which is induced by certain of the agents being proposed for testing, an alternative method would utilize simple cell counting (Courter, Inc.) of aliquots at 3 and 5 days of continuous exposure with concomitant analysis of induced differentiation by cell morphology (NBT-positive) conducted. The percentage of differentiated cells in liquid culture determined by the NBT reduction test (as described, (54) allows for an estimate of the total number of cells which are still blast cells and therefore considered capable of continued leukemogenic growth. The most promising combinations are used to examine de novo acute myeloid leukemia patient samples in like fashion.
The antigrowth factor activity of suramin was tested alone and in combination with all-trans retinoic acid (ATRA) against the human leukemic line HL-60 or its ATRA resistant subclone, HL-60R, to assess if an agent with the ability to interrupt putative autocrine driven leukemic cell growth could reestablish sensitivity to ATRA. […] Synergy or antagonism between combinations was then assessed using a combination-index CI-isobolo gram method.
Cell lines chosen for this study include the ATRA sensitive human acute leukemia HL-60 and the ATRA resistant subclone, HL-60R. While originally described as an acute promyelocytic cell line, more recent work categorizes this line as an acute myelogenous leukemia. The sensitivity of these cell lines to ATRA and suramin alone as single agents has been assessed. […] The assays of proliferation consist of cell proliferation after 3-5 days of exposure to the agents. Cell proliferation is assayed using a modification of the original MTT calorimetric assay described by Mossman, et al. In similar fashion, a dose response curve to cytosine arabinoside has been generated. Using the IC50 values for each agent alone allows selection of reasonable drug combinations. The data software program, "Dose effect analysis with microcomputers" (BioSoft, Inc.) developed by Dr. Chou, et al. is utilized. This computer analysis program allows the assessment of drug combinations for synergistic, additive, or antagonistic interactions.

A further data set has as its system Mo7E. The data set can be described thus: Proliferation of GM-CSF dependent Mo7E cells. It counts as cell-based, human. As to conditions: read-out: Half-maximal inhibition of Mo/7E growth (GM-CSF dependent). The source says:
control. Similarly, cell proliferating of GM-CSF
dependent (Mo7E) and autonomously proliferation (GM-CSF
independent) human leukemia cells (HL-60) gave half-
maximal inhibition of growth. Results are expressed as […]

In another data set the target is rhGM-CSF (Homo sapiens, UniProt P04141). The data set can be described thus: Competition for nucleotide photoprobe incorporation into rhGM-CSF. It is filed as binding.
The subject of a further data set is HL-60R. The data set can be described thus: HL-60R (ATRA resistant subclone) proliferation (MTT), single agents and combinations. It is filed as cell-based, human. The method, then:
as §1, with “fashion. […]” for “fashion.”
Cell lines chosen for this study include the ATRA sensitive human acute leukemia HL-60 and the ATRA resistant subclone, HL-60R. […] The sensitivity of these cell lines to ATRA and suramin alone as single agents has been assessed. […]

Data set [2] concerns acute promyelocytic leukemia (APL). As to conditions: cited from earlier work.
The subject of data set [3] is HL-60. As to conditions: HL-60 in vitro, reference 48; cited from earlier work.
A further data set deals with NB4. Description: Activity against NB4 leukemia cells. It counts as cell-based, human. The method, then:
While originally described as an acute promyelocytic cell line, more recent work categorizes this line as an acute myelogenous leukemia.
as §1

Another data set concerns follicular lymphoma. As to conditions: evaluable follicular lymphoma patients; cited from earlier work.
Where [4] appears, read: Homo sapiens, HL-60, autonomously proliferating cells, read-out: Half-maximal inhibition of HL-60 growth (GM-CSF independent).
The mark [5] stands for this setting: photoprobe incorporation into rhGM-CSF compared to control, read-out: Half-maximal inhibition of nucleotide binding.
Where [6] appears, read: Homo sapiens, HL-60, 120 h, read-out: Fractional Inhibition.

Sequence of rhGM-CSF (P04141 18-144): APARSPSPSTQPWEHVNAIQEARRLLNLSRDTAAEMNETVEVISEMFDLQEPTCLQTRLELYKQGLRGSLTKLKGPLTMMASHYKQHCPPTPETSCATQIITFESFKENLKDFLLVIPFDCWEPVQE

Turning to `O=C(Nc1cccc(C(=O)Nc2ccc(S(=O)(=O)O)c3cc(S(=O)(=O)O)cc(S(=O)(=O)O)c23)c1)Nc1cccc(C(=O)Nc2ccc(S(=O)(=O)O)c3cc(S(=O)(=O)O)cc(S(=O)(=O)O)c23)c1` [NF023], the IC50 in the data set with HL-60 [1] (setting [4]) was determined as 175 µM; with Mo7E (Homo sapiens, Mo7e), 102 µM; on rhGM-CSF (setting [5]), 5 µM.

On to `O=C(Nc1cc(C(=O)Nc2ccc(S(=O)(=O)O)cc2)cc(C(=O)Nc2ccc(S(=O)(=O)O)cc2)c1)Nc1cc(C(=O)Nc2ccc(S(=O)(=O)O)cc2)cc(C(=O)Nc2ccc(S(=O)(=O)O)cc2)c1` [NF110], for which the Enhanced activity in the data set on HL-60 [1] (against HL-60, relative to suramin) was 5-10 fold; with HL-60R (against HL-60R, relative to suramin), 5-10 fold. The IC50 in the data set on HL-60 [1] (autonomously proliferating cells, read-out: Half-maximal inhibition of HL-60 growth (GM-CSF independent)) stood at 6 µM; in the data set with Mo7E, 52 µM; at rhGM-CSF (setting [5]) it was 1.5 µM.

Turning to `CC1=C(/C=C/C(C)=C/C=C/C(C)=C/C(=O)O)C(C)(C)CCC1` [ATRA, all-trans retinoic acid], the “m (slope of the median-effect plot)” value in the data set on HL-60 [1] (HL60, 5 days exposure) was “.2729”. Also, the IC50 with HL-60 [1] (Homo sapiens, HL-60, 120 h, read-out: Dm (antilog of x-intercept of the median-effect plot, the potency (IC50))) is 0.00022 µM. In the data set with HL-60 [1] (setting [6]), the inhibition – broadly, how much of the control response was suppressed – at 0.001 µM worked out at 56.1%; the inhibition at 0.01 µM was determined as 77.7%; the inhibition at 0.02 µM is 79%; the inhibition at 0.04 µM amounted to 82.3%. Moreover, in the data set on HL-60 [1] (setting [6]), the inhibition at 0.08 µM was found to be 82.6% and the inhibition at 0.16 µM is 83.5%. Moreover, the “Patients resistant to ATRA at diagnosis or relapsing” value in data set [2] (APL) is on record as 30-40%. For the same molecule, in data set [2] (ATRA as a single agent in APL), the Complete remission rate is reported as no less than 70%. For the same molecule, in data set [2] (ATRA treatment followed by chemotherapy), the “Patients with long term remissions” value is on record as 60%. The “Patients with ATRA syndrome” value in data set [2] (subset of APL patients, fever, respiratory distress, chest x-ray abnormalities, weight gain) is on record as 5-20%.

With `Cc1ccc(C(=O)Nc2ccc(S(=O)(=O)O)c3cc(S(=O)(=O)O)cc(S(=O)(=O)O)c23)cc1NC(=O)c1cccc(NC(=O)Nc2cccc(C(=O)Nc3cc(C(=O)Nc4ccc(S(=O)(=O)O)c5cc(S(=O)(=O)O)cc(S(=O)(=O)O)c45)ccc3C)c2)c1` [suramin], the “m (slope of the median-effect plot)” value with HL-60 [1] (HL60, 5 days exposure) is 1.725. Besides, the “Inhibition of growth, in words” value with HL-60 [1] (HL-60) and with HL-60R (HL-60R) was “active” throughout. Also, the IC50 in the data set with HL-60 [1] (Homo sapiens, HL-60, 120 h, HL60, 5 days exposure, doses printed in μM, read-out: Dm (antilog of x-intercept of the median-effect plot, the potency (IC50))) turned out to be 38.7 µM; in the data set with HL-60 [1] (setting [4]), 38 µM; in the data set on Mo7E (Homo sapiens, Mo7e), 68 µM; at rhGM-CSF, 2.5 µM. For the same molecule, the inhibition at 3.5 µM in the data set with HL-60 [1] (Homo sapiens, HL-60, 120 h, suramin 3.5 μM, HL60, 5 days exposure, read-out: Fractional Inhibition) worked out at 2%. Moreover, the inhibition at 7 µM in the data set on HL-60 [1] (Homo sapiens, HL-60, 120 h, suramin 7.0 μM, HL60, 5 days exposure, read-out: Fractional Inhibition) was determined as 4.7%. In the data set with HL-60 [1] (Homo sapiens, HL-60, 120 h, suramin 14.0 μM, HL60, 5 days exposure, read-out: Fractional Inhibition), the inhibition at 14 µM was 9.3%. For the same molecule, the inhibition at 28 µM in the data set on HL-60 [1] (Homo sapiens, HL-60, 120 h, suramin 28.0 μM, HL60, 5 days exposure, read-out: Fractional Inhibition) was found to be 41.9%. In addition, the inhibition at 56 µM with HL-60 [1] (Homo sapiens, HL-60, 120 h, suramin 56.0 μM, HL60, 5 days exposure, read-out: Fractional Inhibition) turned out to be 67.8%. Moreover, the “Suppression of proliferation, in words” value in the data set with HL-60 [3] is “strongly suppress”. In the data set on NB4, the “Activity, in words” value was “active”. For the same molecule, in the data set with follicular lymphoma, the “Patients achieving partial remission” value was “five of nine”.
